Data on 1 molecule can be found in patent publication US20240132445A1, “PHENOL DERIVATIVE AND APPLICATION THEREOF IN MEDICAMENTS” (priority 2021, published 2024).

Structures are written as SMILES. Read-outs that look alike come from different tables or passages of the source.

Series [1] in a line: in vivo. As to conditions: both, ICR, mouse, in vivo, iv. On the procedure:
(§1) SPF-grade ICR mice, each weighing 18-22 g, half male and half female, were used. A well-established mouse anesthesia model was used to study the general anesthesia effect of the compound of the present invention. The compounds were formulated with solvents of 10% DMSO, 15% solutol (HS15) and 75% saline to the desired concentration, for further use. After adapting to the experimental environment, the experimental animals were fasted with water available for 12 h, and were administered via intravenous injection at an administration volume of 10 mL/kg. Then the anesthesia induction time (the time period from drug administration to disappearance of the righting reflex) and the anesthesia maintenance time (the time period from disappearance of the righting reflex to recovery of the righting reflex) were recorded. Indicators including the median effective dose (ED50), median lethal dose (LD50), therapeutic index (TI, i.e. LD50/ED50), anesthesia induction time, anesthesia maintenance time and maximum tolerated dose were used to evaluate the effect and safety of anesthesia.

Series [2] deals with ICR mice. The experiment in a line: animal or person. On the procedure: as §1
The nature of series [3]: in vivo. The format is in vivo, rats. As to conditions: both sexes, Sprague-Dawley, rat, in vivo, rats.
Experimental: (§2) SD rats, half male and half female, were fasted with water available for 12 h, and were administered via intravenous injection at an administration volume of 10 mL/kg. Then the anesthesia induction time (the time period from drug administration to disappearance of the righting reflex), the anesthesia maintenance time (the time period from disappearance of the righting reflex to recovery of the righting reflex and revival) and the anesthesia recovery time (the time period from revival to complete recovery) were recorded. Indicators including the median effective dose (ED50), median lethal dose (LD50), therapeutic index (TI, i.e. LD50/ED50), anesthesia induction time, anesthesia maintenance time and maximum tolerated dose were used to evaluate the effect and safety of anesthesia.
Series [4] has as its system SD rats. The experiment in a line: animal or person. As to conditions: rats. Format: in vivo.
Experimental: as §2
In series [5] the target is GABAA (α1β2γ2) receptor (Homo sapiens (Human), UniProt P14867+P18507+P47870). Kind of series: Whole-cell patch-clamp of GABAA (α1β2γ2) receptor current in stably expressing HEK293 cells. As to conditions: allosteric regulation. Format: cell-based. An excerpt:
Gamma-aminobutyric acid (GABA) was an important inhibitory amino acid neurotransmitter in the central nervous system, and functioned by binding to GABA receptors. The GABA receptors were divided into three subtypes: GABAA, GABAB and GABAC, among which the GABAA receptor was the most important. The GABAA receptor was an anion-selective ion channel that could enhance chloride ion permeability and thus reduce neuronal excitability. The GABAA receptor was involved in regulating general anesthesia and was also closely related to diseases such as neurological and psychiatric disorders, e.g., depression, insomnia, anxiety and epilepsy. […]
HEK293 cell lines stably expressing the GABAA (α1β2γ2) receptor were used. […] The voltage stimulus of GABA receptor current recorded by a whole-cell patch-clamp technique was as follows: when whole-cell sealing was formed, the cell membrane voltage was clamped at −70 mV. The peak value of current was recorded after sequentially spraying test compounds from low concentration to high concentration and 100 μM GABA onto the cell surface in a Gap-free mode. […] Then slow capacitance compensation was conducted, and the membrane capacitance (pF) and series resistance were recorded. […] Multiple cells were independently and repeatedly detected. […]

Series [6] can be described thus: Pharmacokinetic study in rats. As to conditions: male, Sprague-Dawley, rat, plasma, iv, 1 mg/kg. The format is in vivo, SD rats. On the procedure:
Twelve male SD rats (200-300 g) were randomized into 2 groups (n=6): control group 3 and compound 20. The rats were administered via intravenous injection at 1 mg/kg (control group 3) and 1 mg/kg (compound 20), respectively, with an administration volume of 5 mL/kg and a vehicle of 5% DMSO+10% solutol (HS15)+85% Saline. Blood samples were taken before administration and at 2 min, 4 min, 8 min, 12 min, 15 min, 30 min, 1 h, 1.5 h and 2 h after administration. Plasma samples were taken by centrifugation, and stored in a −80° C. refrigerator until LC-MS analysis to be tested. After sample processing, quantitative analysis of substances in plasma was conducted using LCMS/MS to detect the concentration of prototype compounds in the plasma. The plasma concentration/time curve obtained in this way was used to calculate pharmacokinetic parameters by a validated pharmacokinetic computer program.

Series [7] is described as follows: Pharmacokinetic study in Beagle dogs. The format is in vivo. As to conditions: male, dog, plasma, iv, 0.5 mg/kg. On the procedure: Six male Beagle dogs (6-10 kg) were randomized into 2 groups (n=3): control group 3 and compound 20. The […] were administered via intravenous injection at 0.5 mg/kg (control group 3) and 0.5 mg/kg (compound 20), respectively, with an administration volume of 1 mL/kg and a vehicle of 5% DMSO+10% solutol (HS15)+85% Saline. Blood samples were taken before administration and at 2 min, 5 min, 10 min, 20 min, 30 min, 1 h, 1.5 h, 2 h and 3 h after administration. Plasma samples were taken by centrifugation, and stored in a −80° C. refrigerator until LC-MS analysis to be tested. After sample processing, quantitative analysis of substances in plasma was conducted using LCMS/MS to detect the concentration of prototype compounds in the plasma. The plasma concentration/time curve obtained in this way was used to calculate pharmacokinetic parameters by a validated pharmacokinetic computer program.

In series [8] the test system is Beagle dogs. The experiment in a line: Hemodynamic effect study in conscious Beagle dogs (telemetry). The format is in vivo. To be noted: iv. On the procedure:
The experiment used an emka PACK 4G telemetry system to detect the effects of intravenous injection of control group 3 and compound 20 on electrocardiogram, blood pressure and body temperature in conscious Beagle dogs, providing reference information for evaluating the safety of clinical use.
Four Beagle dogs were subjected to crossover administration, with a vehicle control (5% DMSO+10% solutol+85% Saline), control group 3 (2 mg/kg), compound 20 (0.5 mg/kg) and compound 20 (1 mg/kg) for each intravenous injection, with an administration volume of 2 mL/kg. Observations were respectively conducted before administration and within 1 h after administration on the day of administration. Anal temperature was measured before administration and at 30 min, 1 h, 2 h and 3 h after administration during each administration period; and electrocardiogram parameters were continuously collected from 0.5 h before administration to 3 h after administration during each administration period. Blood pressure was collected at 15 min after collection was started, and was collected at 2 min, 5 min, 10 min, 20 min, 30 min, 1 h, 2 h and 3 h after administration. The electrocardiogram, blood pressure data, body temperature, and clinical observation results on the day of administration at various time points including before administration (at 30 min after collection was started) and at 2 min, 5 min, 10 min, 20 min, 30 min, 1 h, 2 h and 3 h after administration were analysed and evaluated.

Sequence of GABAA (α1β2γ2) receptor (P14867 28-456 limits assumed): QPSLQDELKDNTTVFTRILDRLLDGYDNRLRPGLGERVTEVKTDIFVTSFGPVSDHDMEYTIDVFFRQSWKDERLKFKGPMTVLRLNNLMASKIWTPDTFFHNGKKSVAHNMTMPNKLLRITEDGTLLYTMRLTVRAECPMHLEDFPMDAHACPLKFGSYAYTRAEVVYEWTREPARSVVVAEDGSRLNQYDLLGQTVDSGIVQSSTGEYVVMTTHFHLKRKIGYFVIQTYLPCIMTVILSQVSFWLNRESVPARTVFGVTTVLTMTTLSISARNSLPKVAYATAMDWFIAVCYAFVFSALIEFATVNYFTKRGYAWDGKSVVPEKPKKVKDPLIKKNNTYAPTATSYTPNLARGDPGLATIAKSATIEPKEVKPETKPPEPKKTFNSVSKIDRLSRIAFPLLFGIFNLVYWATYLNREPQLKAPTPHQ
Sequence of GABAA (α1β2γ2) receptor (P47870 26-512 limits assumed): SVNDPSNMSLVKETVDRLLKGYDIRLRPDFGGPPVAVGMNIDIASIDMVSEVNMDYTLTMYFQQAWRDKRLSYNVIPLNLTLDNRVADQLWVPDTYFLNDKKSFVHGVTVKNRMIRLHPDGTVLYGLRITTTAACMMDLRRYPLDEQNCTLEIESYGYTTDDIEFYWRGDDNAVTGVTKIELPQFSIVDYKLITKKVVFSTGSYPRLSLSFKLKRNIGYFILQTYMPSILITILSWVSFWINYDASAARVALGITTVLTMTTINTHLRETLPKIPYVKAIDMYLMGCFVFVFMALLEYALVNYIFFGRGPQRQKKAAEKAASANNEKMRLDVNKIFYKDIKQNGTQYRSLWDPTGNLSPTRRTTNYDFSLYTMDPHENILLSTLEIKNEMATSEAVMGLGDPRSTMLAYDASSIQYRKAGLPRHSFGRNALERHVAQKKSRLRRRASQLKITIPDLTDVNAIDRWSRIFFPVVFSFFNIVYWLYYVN
Sequence of GABAA (α1β2γ2) receptor (P18507 40-475 limits assumed): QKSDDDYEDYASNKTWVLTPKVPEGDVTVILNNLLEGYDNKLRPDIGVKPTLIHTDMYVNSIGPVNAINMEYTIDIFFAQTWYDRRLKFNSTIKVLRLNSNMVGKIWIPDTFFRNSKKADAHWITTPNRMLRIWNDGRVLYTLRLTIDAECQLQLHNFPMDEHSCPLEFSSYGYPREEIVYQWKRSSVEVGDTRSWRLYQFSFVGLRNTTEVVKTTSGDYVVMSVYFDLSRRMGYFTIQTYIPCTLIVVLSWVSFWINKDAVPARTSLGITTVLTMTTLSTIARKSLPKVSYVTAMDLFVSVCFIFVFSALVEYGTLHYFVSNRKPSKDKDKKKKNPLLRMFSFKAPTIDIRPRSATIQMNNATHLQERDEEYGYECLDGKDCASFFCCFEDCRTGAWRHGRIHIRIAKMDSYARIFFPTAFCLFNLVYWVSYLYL

Turning to `CCS(=O)(=O)[C@@H](C)c1cccc([C@H](C)C2CC2)c1O` [Compound 20, 2-((R)-1-cyclopropylethyl)-6-((S)-1-(ethylsulfonyl)ethyl)phenol], the LD50 was 3.5 mg/kg in series [1] and 3.2 mg/kg in series [3] (intravenous injection, read-out: LD50). Also, the MTD came out at 1.8 mg/kg in series [1] and 2.2 mg/kg in series [3] (iv, maximum tolerated dose, read-out: MTD). For the same molecule, the ED50 came out at 0.6 mg/kg in series [2] (Mus musculus, iv) and 0.5 mg/kg in series [4] (Rattus norvegicus, intravenous injection, loss of righting reflex, read-out: ED50). Also, the TI is 5.8 in series [2] (mice, LD50/ED50) and 6.4 in series [4] (LD50/ED50). The Anesthesia induction time is listed as 2 s in series [2] (mice, iv, administration to disappearance of righting reflex) and 10 s in series [4] (iv, administration to disappearance of righting reflex). Besides, the Anesthesia maintenance time in series [2] (mice, iv, disappearance to recovery of righting reflex) was determined as 573 s; in series [4] (iv, disappearance to recovery of righting reflex), 624 s. The EC50 was 1560 nM in series [5] (HEK293, -70 mV, n=3, read-out: EC50) and 1560 nM in series [5] (HEK293, text restatement, read-out: semi-activated concentration (EC50)). Moreover, the AUC(0-t) came out at 196 ng·h/mL in series [6] and 128 ng·h/mL in series [7]. In addition, the half-life was 19.8 min in series [6] and 47.4 min in series [7]. Also, the “effect on the heart rate, blood pressure and body temperature” value in series [8] (0.5 and 1 mg/kg) was “little effect”. Moreover, in series [8] (control group 3 2 mg/kg, compound 20 0.5 and 1 mg/kg, within 1 h, recovery after 1 h), the “change in heart rate after administration” value is on record as “slow down in heart rate”.
